Experiments:
[1] = tested on: patients with dyspepsia associated with gastric ulcers, duodenal ulcers, reflux esophagitis and gastroesophageal reflux without esophagitis; settings: clinical studies; cited from earlier work
[2] = tested on: patients affected by sleeping disturbance; assay: Administration of esomeprazole to patients affected by sleeping disturbance; format: in vivo, human; settings: especially with GERD, oral route
From the text: This applies especially to patients with GERD.
While the effect on the symptoms of sleeping disturbance have been established in patients who have taken esomeprazole by the oral route, it is believed that the improved effect of esomeprazole is a systemic effect which is not dependent on what mode of administration that is used, and that accordingly the improved effect on sleeping and quality of life will be seen also with other routes of administration such as rectal or parenteral administration.
The invention is further exemplified by the following case studies. During oral treatment with esomeprazole for acid related diseases such as non-erosive and erosive induced upper gastrointestinal disorders, evidence has accumulated that esomeprazole may be beneficial for treatment of sleeping disturbance especially in patients with GERD and endoscopy negative GERD.

[3] = at neutral or acid pH; cited from earlier work

## COc1ccc2[nH]c([S+]([O-])Cc3ncc(C)c(OC)c3C)nc2c1 (racemic) [omeprazole, 5-methoxy-2-[[(4-methoxy-3,5-dimethyl-2-pyridinyl)methyl]sulfinyl]-1H-benzimidazole]
[1]
  healing of gastroduodenal and esophageal lesions and dyspeptic symptom resolution versus H2 receptor antagonists: superior to H2 receptor antagonists

## COc1ccc2nc([S@@+]([O-])Cc3ncc(C)c(OC)c3C)[nH]c2c1 [esomeprazole, S-5-methoxy-2-[[(4-methoxy-3,5-dimethyl-2-pyridinyl)methyl]sulfinyl]-1H-benzimidazole]
[2]
  effect on symptoms of sleeping disturbance: disappearance or great improvement of the symptoms
[3]
  storage stability: poor storage stability

— patent US20050182100A1, “Method of use” (priority 2002, published 2005)
